# Values quoted from earlier work as cited in patent publication US20060134300A1, “Nutritional supplement for caffeine-containing beverages” (priority 2004, published 2006).
# Experiments:
# [1] = tested on: adrenaline and noradrenaline; conditions: triple dose of caffeine
# [2] = tested on: sympathetic nervous system; conditions: intraventricular administration
# rats = conditions: rat, in vivo
# [3] = tested on: subjects put under stress; conditions: 100 mg/kg, within an hour of ingesting
# [4] = dose of 150 mg/kg, extended wakefulness
smiles,measurement,setting,value
"Cn1c(=O)c2c(ncn2C)n(C)c1=O [caffeine, 1,3,7-trimethylxanthine]",catecholamines (adrenaline and noradrenaline),[1],significantly increased
"NCCS(=O)(=O)O [taurine, 2-aminoethanesulfonic acid]",sympathetic nerve activity,[2],inhibited sympathetic nerve activity
same,LD 50,rats,"greater than 5,000 mg/kg"
N[C@@H](Cc1ccc(O)cc1)C(=O)O [tyrosine],cognitive performance,[3],improved their cognitive performance
same,lapse probability on a high-event-rate vigilance task,[4],significant reduction
same,performance decline on a psychomotor task,[4],significant amelioration
